Read-outs that look alike come from different tables or passages of the source.
Tests used:
BSA = target: T1, BSA (Bos taurus, UniProt P02769); parameters: Intact protein LC/MS covalent labelling, fragments in pools of five, 200 uM each, 4 °C; conditions: 24 h, 4 °C, pool of five; 200 µM; covalent
T1 construct: gene ALB

NNMT (hNNMT) = target: T2, NNMT (hNNMT) (Homo sapiens, UniProt P40261); parameters: Intact protein LC/MS covalent labelling, fragments in pools of five, 200 uM each, 4 °C; conditions: 24 h, 4 °C, pool of five; 200 µM; covalent
T2 construct: wild type, N-terminal His6 tag kept (no cleavage described), E. coli, construct 31248 Da
T2 sequence (P40261 1-264): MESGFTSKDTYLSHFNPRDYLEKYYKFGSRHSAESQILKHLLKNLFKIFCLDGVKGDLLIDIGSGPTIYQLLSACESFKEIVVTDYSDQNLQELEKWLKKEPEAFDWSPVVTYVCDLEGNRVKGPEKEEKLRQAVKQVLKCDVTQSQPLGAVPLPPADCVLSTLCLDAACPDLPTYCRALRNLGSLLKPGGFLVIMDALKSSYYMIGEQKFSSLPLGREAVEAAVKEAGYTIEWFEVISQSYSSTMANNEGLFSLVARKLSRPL

NUDT7 = target: T3, NUDT7 (Homo sapiens, UniProt P0C024); parameters: Intact protein LC/MS covalent labelling, fragments in pools of five, 200 uM each, 4 °C; conditions: 24 h, 4 °C, pool of five; 200 µM; covalent
T3 construct: residues 14-235, E. coli, pNIC28-Bsa4, N-terminal His6 tag removed by TEV, construct 26672 Da
T3 sequence (P0C024 14-235): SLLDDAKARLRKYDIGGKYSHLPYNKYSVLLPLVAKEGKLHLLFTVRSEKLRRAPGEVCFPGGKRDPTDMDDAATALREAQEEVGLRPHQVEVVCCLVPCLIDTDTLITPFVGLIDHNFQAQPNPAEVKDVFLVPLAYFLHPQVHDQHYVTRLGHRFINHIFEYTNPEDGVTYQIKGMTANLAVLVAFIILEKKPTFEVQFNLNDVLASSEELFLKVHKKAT

PCAF = target: T4, PCAF (Homo sapiens, UniProt Q92831); parameters: Intact protein LC/MS covalent labelling, fragments in pools of five, 200 uM each, 4 °C; conditions: 24 h, 4 °C, pool of five; 200 µM; covalent
T4 construct: gene KAT2B
T4 sequence (Q92831 whole entry, the tested form may be a part): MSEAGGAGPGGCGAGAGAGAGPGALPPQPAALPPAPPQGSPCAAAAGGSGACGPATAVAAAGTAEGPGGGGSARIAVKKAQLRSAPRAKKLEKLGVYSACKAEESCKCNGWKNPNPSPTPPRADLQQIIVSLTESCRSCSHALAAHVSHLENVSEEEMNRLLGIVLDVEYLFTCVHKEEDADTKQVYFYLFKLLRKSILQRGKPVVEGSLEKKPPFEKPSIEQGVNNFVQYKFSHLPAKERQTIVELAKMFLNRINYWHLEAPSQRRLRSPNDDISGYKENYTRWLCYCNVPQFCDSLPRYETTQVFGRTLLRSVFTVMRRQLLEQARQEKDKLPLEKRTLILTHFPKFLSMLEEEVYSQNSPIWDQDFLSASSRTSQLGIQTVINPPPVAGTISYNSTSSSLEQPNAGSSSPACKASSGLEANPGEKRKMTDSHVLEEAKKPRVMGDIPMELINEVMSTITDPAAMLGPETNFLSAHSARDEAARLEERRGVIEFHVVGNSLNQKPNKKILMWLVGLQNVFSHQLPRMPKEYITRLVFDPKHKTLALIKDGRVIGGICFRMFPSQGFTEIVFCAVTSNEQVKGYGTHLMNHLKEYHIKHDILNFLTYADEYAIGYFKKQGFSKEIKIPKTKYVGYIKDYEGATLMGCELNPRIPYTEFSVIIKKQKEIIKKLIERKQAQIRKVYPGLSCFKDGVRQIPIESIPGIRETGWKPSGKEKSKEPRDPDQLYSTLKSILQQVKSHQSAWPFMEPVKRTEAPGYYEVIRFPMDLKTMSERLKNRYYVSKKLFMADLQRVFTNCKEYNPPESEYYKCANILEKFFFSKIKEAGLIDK

in vitro [1] = assay: in vitro; parameters: species or system CCD841, HEK293; conditions: human, hb2 cells, read-out: HB-2 Cells Viability (%)
in vitro [2] = assay: in vitro; parameters: species or system HB2, HEK293; conditions: human, ccd841 cells
in vitro [3] = assay: in vitro; parameters: species or system HB2, CCD841; conditions: human, hek293 cells
OTUB2 (OTUB2A) = target: T5, OTUB2 (OTUB2A) (Homo sapiens, UniProt Q96DC9); parameters: Intact protein LC/MS covalent labelling, fragments in pools of five, 200 uM each, 4 °C; conditions: 24 h, 4 °C, pool of five; 200 µM; covalent
T5 construct: full length residues 1-234, E. coli BL21(DE3)-R3, His tag removed by TEV, construct 27312 Da
T5 sequence (Q96DC9 1-234): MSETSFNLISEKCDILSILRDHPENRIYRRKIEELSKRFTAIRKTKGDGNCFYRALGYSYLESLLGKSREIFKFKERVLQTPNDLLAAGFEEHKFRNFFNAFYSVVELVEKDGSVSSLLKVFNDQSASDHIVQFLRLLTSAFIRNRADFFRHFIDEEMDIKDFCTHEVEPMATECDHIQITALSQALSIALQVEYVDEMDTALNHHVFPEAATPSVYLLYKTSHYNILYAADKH

T1 sequence (P02769 whole entry, the tested form may be a part): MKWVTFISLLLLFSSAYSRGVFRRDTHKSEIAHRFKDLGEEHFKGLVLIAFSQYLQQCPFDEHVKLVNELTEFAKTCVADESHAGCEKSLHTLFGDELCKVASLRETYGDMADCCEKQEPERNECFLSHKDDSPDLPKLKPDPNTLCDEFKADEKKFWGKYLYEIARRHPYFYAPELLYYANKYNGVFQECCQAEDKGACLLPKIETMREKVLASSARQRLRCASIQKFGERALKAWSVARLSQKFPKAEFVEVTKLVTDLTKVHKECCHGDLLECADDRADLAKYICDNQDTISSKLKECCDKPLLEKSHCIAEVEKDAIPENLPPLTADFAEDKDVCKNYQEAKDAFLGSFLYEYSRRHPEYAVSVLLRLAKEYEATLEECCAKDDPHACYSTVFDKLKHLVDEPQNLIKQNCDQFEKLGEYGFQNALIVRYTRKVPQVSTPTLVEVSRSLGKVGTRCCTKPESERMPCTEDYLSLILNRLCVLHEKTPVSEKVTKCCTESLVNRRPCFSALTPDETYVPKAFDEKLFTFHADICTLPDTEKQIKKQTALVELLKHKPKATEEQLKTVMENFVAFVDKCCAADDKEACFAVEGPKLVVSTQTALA

Structure (SMILES)	BSA (BSA)	NNMT (NNMT (hNNMT))	NUDT7 (NUDT7)	PCAF (PCAF)	viability at 48 h, 10 µM (in vitro [1]) [%]	viability at 48 h, 10 µM (in vitro [2]) [%]	viability at 48 h, 10 µM (in vitro [3]) [%]	OTUB2 (OTUB2 (OTUB2A))
N#CC1(NC(=O)CCl)CCCC1 [PCM-0102136]	0	0	0	0	70	61.1	44	
Cc1ccccc1CNC(=O)CCl [PCM-0102253]	0	0.2	0	0	99.6	86.6	93.4	
O=C(CCl)NC1CCCCCCC1 [PCM-0102318]	0	0	0	0	86.6	92.1	66.1	
C=CC(=O)Nc1ccc(N(C)C)cc1 [PCM-0102461]	0	0.2	0	0	102	111	81.3	
C=CC(=O)N1CCC(c2nc(C(F)(F)F)c[nH]2)CC1 [PCM-0102513]	0	0.22	0	0	95.7	99.4	111	
C=CC(=O)NC1CCCN(C(=O)OC)C1 (stereo not shown) [PCM-0102526]	0	0.22	0	0	101	106	90.7	
C=CC(=O)NCc1ccc2c(c1)C(C)(C)C(=O)N2 [PCM-0102570]	0	0.21	0	0	107	110	92	
C=CC(=O)N1CCNC(=O)C1c1cccs1 (stereo not shown) [PCM-0102597]	0	0	0	0	103	113	81	
O=C(CCl)Nc1cc2c(cc1Cl)C(=O)c1ccccc1C2=O [PCM-0102757]	0	0	0.12	0	1.4	58.4	22.5	
CC1CCC(N(C(=O)CCl)C2CC2)CC1 (stereo not shown) [PCM-0102792]	0	0.21	0.13	0	11.4	8.8	6.8	
O=C(CCl)Nc1ccc(N2CCCCC2)nc1 [PCM-0102812]	0	0.53	0.14	0	32.5	61.5	4.4	
Cc1cc(NC(=O)CCl)n(C(C)(C)C)n1 [PCM-0103057]	0		0	0	76.3	61.7	58.6	0
C=CC(=O)NC1CCN(C(=O)NCC)C1 (stereo not shown) [PCM-0103058]	0		0	0	94.4	93.3	109	0
C=CC(=O)N1CC(Oc2ccc(C#N)cc2)C1 [PCM-0103059]	0		0	0	98.1	90.8	73.3	0.07
O=C(CCl)NNC(=O)C1CCC1 [PCM-0103061]	0		0.28	0	8.2	30.9	2.3	0.14
O=C(CCl)NC1CCSC1=O (stereo not shown) [PCM-0103062]	0		0	0	97.6	88.2	90.7	0
Cl.O=C(CCl)N1CCN(Cc2ccccc2)CC1 [PCM-0103063]	0		0.07	0	72.1	81.1	60.1	0.35
O=C(CCl)N1CCC(c2nc3ccccc3s2)CC1 [PCM-0103068]	0		0.65	0	17.4	46	15.4	0
C=CC(=O)N1CCCC(c2nc3c(s2)CCCC3)C1 (stereo not shown) [PCM-0103069]	0		0	0	98.5	104	79.4	0
COCC(=O)NNC(=O)CCl [PCM-0103070]	0		0	0	95.3	85.8	97.1	0
O=C(CCl)N1CCCc2cccc(F)c21 [PCM-0103071]	0		0.4	0	62.4	65.9	25.1	0
C=CC(=O)NC(c1cnn(C)c1)C(F)(F)F (stereo not shown) [PCM-0103073]	0		0	0	99.5	107	94.4	0
C=CC(=O)N1CCc2c(ncn(CC)c2=O)C1 [PCM-0103074]	0		0	0	101	115	100	0
C=CC(=O)NCc1snnc1C [PCM-0103079]	0		0	0	104	102	97	0
O=C(CCl)NCc1ccc(Cl)s1 [PCM-0103080]	0		0	0	79.6	61.2	73	0.79
Cc1ccc(N(C(=O)CCl)C2C=CS(=O)(=O)C2)cc1C (stereo not shown) [PCM-0103082]	0		0.15	0	19.6	10.5	4.1	0
C=CC(=O)NC1CCCn2nc(C)nc21 (stereo not shown) [PCM-0103083]	0		0	0	105	116	115	0
CCN(C(=O)CCl)C1=CCCCC1 [PCM-0103084]	0.19		0	0	106	97.8	120	0

— paper PMC6556873, “Rapid Covalent-Probe Discovery by Electrophile-Fragment Screening” (Journal of the American Chemical Society, 2019)
